According to PubChem BioAssay AID1918945 (Molecular Pharmacology Branch, DTP, NCI, 2023):
Several values for one entry are separate records, joined by “and”; a condition that tells them apart may be missing. Identical values can stand only once.

System: 883617-216-R-J1-PDC complex spheroid viability
Test: Anticancer human tumor 883617-216-R-J1-PDC patient-derived bladder carcinoma cell line growth inhibition
Details: for viability, T/C: stronger effect = lower value
In short: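 Multicellular complex spheroids of tumor cells with human endothelial cells (HUVEC) and mesenchymal stem cells; the LSD1 inhibitor iadademstat was combined with standard-of-care or investigational agents. Top concentration at or near clinical Cmax, half-log dilutions; final DMSO ≤0.25%.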

[1] = curve of first compound, second compound 0.1 µM
[2] = curve of first compound, second compound 0.316 µM
[3] = curve of first compound, second compound 1 µM
[4] = curve of first compound, second compound 3.16 µM
[5] = curve of first compound, second compound 10 µM
[6] = second compound 0.1 µM, first compound 0.00316 µM
[7] = second compound 0.1 µM, first compound 0.01 µM
[8] = second compound 0.1 µM, first compound 0.0316 µM
[9] = second compound 0.1 µM, first compound 0.1 µM
[10] = second compound 0.1 µM, first compound 0.316 µM
[11] = second compound 0.1 µM, first compound 1 µM
[12] = second compound 0.316 µM, first compound 0.00316 µM
[13] = second compound 0.316 µM, first compound 0.01 µM
[14] = second compound 0.316 µM, first compound 0.0316 µM
[15] = second compound 0.316 µM, first compound 0.1 µM
[16] = second compound 0.316 µM, first compound 0.316 µM
[17] = second compound 0.316 µM, first compound 1 µM
[18] = second compound 1 µM, first compound 0.00316 µM
[19] = second compound 1 µM, first compound 0.01 µM
[20] = second compound 1 µM, first compound 0.0316 µM
[21] = second compound 1 µM, first compound 0.1 µM
[22] = second compound 1 µM, first compound 0.316 µM
[23] = second compound 1 µM, first compound 1 µM
[24] = second compound 3.16 µM, first compound 0.00316 µM
[25] = second compound 3.16 µM, first compound 0.01 µM
[26] = second compound 3.16 µM, first compound 0.0316 µM
[27] = second compound 3.16 µM, first compound 0.1 µM
[28] = second compound 3.16 µM, first compound 0.316 µM
[29] = second compound 3.16 µM, first compound 1 µM
[30] = second compound 10 µM, first compound 0.00316 µM
[31] = second compound 10 µM, first compound 0.01 µM
[32] = second compound 10 µM, first compound 0.0316 µM
[33] = second compound 10 µM, first compound 0.1 µM
[34] = second compound 10 µM, first compound 0.316 µM
[35] = second compound 10 µM, first compound 1 µM
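Note: exposure lasted seven days after three days of spheroid growth.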
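Throughout, for viability, T/C: 100% = DMSO vehicle control luminescence.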

Row | SMILES | IC50 [1] [µM] | IC50 [2] [µM] | IC50 [3] [µM] | IC50 [4] [µM] | IC50 [5] [µM] | viability, T/C [6] [%] | viability, T/C [7] [%] | viability, T/C [8] [%] | viability, T/C [9] [%] | viability, T/C [12] [%] | viability, T/C [13] [%] | viability, T/C [14] [%] | viability, T/C [15] [%] | viability, T/C [18] [%] | viability, T/C [19] [%] | viability, T/C [20] [%] | viability, T/C [21] [%] | viability, T/C [24] [%] | viability, T/C [25] [%] | viability, T/C [26] [%] | further results
1 | COc1cc(Nc2ncc3c(n2)-c2ccc(Cl)cc2C(c2c(F)cccc2OC)=NC3)ccc1C(=O)O + NC1CCC(NC2CC2c2ccccc2)CC1 | > 1 | 0.262 | 0.322 | > 1 | > 1 | 96.2 | 77.3 | 61.3 | 53.3 | 98.6 | 81.1 | 58.7 | 53.3 | 94.8 | 75.7 | 54.6 | 49.4 | 96.1 | 83.7 | 58.8 | viability, T/C [10]: 51.5%; viability, T/C [11]: 50.7%; viability, T/C [16]: 48.8%; viability, T/C [17]: 49.1%; viability, T/C [22]: 48.8%; viability, T/C [23]: 53%; viability, T/C [27]: 50.8%; viability, T/C [28]: 55.5%; viability, T/C [29]: 56.2%; viability, T/C [30]: 93.5%; viability, T/C [31]: 75.5%; viability, T/C [32]: 65.1%; viability, T/C [33]: 58.1%; viability, T/C [34]: 54.7%; viability, T/C [35]: 51.1%
2 | CC(C)c1c(-c2ccccc2)nc2c(C#N)c[nH]n2c1=O |  |  |  |  |  |  |  |  |  |  |  |  |  |  |  |  |  |  |  |  | viability, T/C (compound 0.0316 µM): 97.4% and 97.3%; viability, T/C (compound 0.1 µM): 97.7% and 103%; viability, T/C (compound 0.316 µM): 104% and 111%; viability, T/C (compound 1 µM): 96% and 94.4%; viability, T/C (compound 3.16 µM): 98.8% and 101%; viability, T/C (compound 10 µM): 86.8% and 86.7%; IC50 (curve of compound): > 10 µM
3 | CC1COCCN1c1cc(-c2ccnn2C)c2ccnc(-c3ccn[nH]3)c2n1 (configuration not stated) + NC1CC1c1ccc(-c2cccc(O)c2)cc1 | 0.00765 | 0.00814 | 0.00858 | 0.00473 | 0.00373 | 56.5 | 49.9 | 37.2 | 29.1 | 63.4 | 45.9 | 35.3 | 32.7 | 60.1 | 49.8 | 32.8 | 29.1 | 56.6 | 37.8 | 30.3 | viability, T/C [10]: 24.6%; viability, T/C [11]: 18.8%; viability, T/C [16]: 26%; viability, T/C [17]: 21%; viability, T/C [22]: 23.1%; viability, T/C [23]: 20.4%; viability, T/C [27]: 26.6%; viability, T/C [28]: 23.2%; viability, T/C [29]: 19.4%; viability, T/C [30]: 51.2%; viability, T/C [31]: 41.9%; viability, T/C [32]: 27.6%; viability, T/C [33]: 25%; viability, T/C [34]: 22.6%; viability, T/C [35]: 19.7%
4 | Cn1ncnc1C1c2n[nH]c(=O)c3cc(F)cc(c23)NC1c1ccc(F)cc1 (configuration not stated) + NC1CCC(NC2CC2c2ccccc2)CC1 | > 0.1 | > 0.1 | > 0.1 | > 0.1 | > 0.1 | 103 | 91.6 | 68.5 | 66.6 | 97.6 | 89.7 | 72.7 | 60 | 99.2 | 93.9 | 67.3 | 57.7 | 99.2 | 85.2 | 69.2 | viability, T/C (second compound 0.1 µM, first compound 0.000316 µM): 110%; viability, T/C (second compound 0.1 µM, first compound 0.001 µM): 110%; viability, T/C (second compound 0.316 µM, first compound 0.000316 µM): 113%; viability, T/C (second compound 0.316 µM, first compound 0.001 µM): 111%; viability, T/C (second compound 1 µM, first compound 0.000316 µM): 112%; viability, T/C (second compound 1 µM, first compound 0.001 µM): 113%; viability, T/C (second compound 3.16 µM, first compound 0.000316 µM): 101%; viability, T/C (second compound 3.16 µM, first compound 0.001 µM): 102%; viability, T/C [27]: 69.7%; viability, T/C (second compound 10 µM, first compound 0.000316 µM): 107%; viability, T/C (second compound 10 µM, first compound 0.001 µM): 106%; viability, T/C [30]: 108%; viability, T/C [31]: 90.6%; viability, T/C [32]: 72.8%; viability, T/C [33]: 66.2%
